Source: patent US11358949B2, “Carbamate and urea compounds as multikinase inhibitors” (ANGEX PHARMACEUTICAL, INC., priority 2017, dated 2022)
pIC50: −log10 of the molar value.

Experiments:
MEK1 = MEK1 (Homo sapiens, UniProt Q02750); assay: HotSpot Kinase Assay, MEK1
Experimental: (§1) Specifically, for each reaction, kinase and substrate were mixed in a pH 7.5 buffer containing 20 mM HEPES, 10 mM MgCl2, 1 mM EGTA [Ethylene glycol-bis(2-aminoethylether)-N,N,N′,N′-tetraacetic acid], 0.02% Brij35, 0.02 mg/mL BSA (Bovine Serum Albumin), 0.1 mM Na3VO4, 2 mM DTT, and 1% DMSO. Compounds were then added to each reaction mixture. After a 20-min incubation, ATP (Sigma-Aldrich) and [γ-^33P] ATP (PerkinElmer) were added at a final total concentration of 100 μM. Reactions were carried out at room temperature for 2 hours and spotted onto P81 ion exchange cellulose chromatography paper (Whatman). […] The percent remaining kinase activity relative to a vehicle-containing (DMSO) kinase reaction was calculated for each kinase/inhibitor pair. […] IC50 values were calculated using Prism 5 (GraphPad).

EPHA1 = EPHA1 (Homo sapiens, UniProt P21709); assay: HotSpot Kinase Assay, EPHA1
Experimental: as §1

DDR1 = DDR1 (Homo sapiens, UniProt Q08345); assay: HotSpot Kinase Assay, DDR1
PLK4/SAK = PLK4/SAK (Homo sapiens, UniProt O00444); assay: HotSpot Kinase Assay, PLK4/SAK
Experimental: as §1

EPHB2 = EPHB2 (Homo sapiens, UniProt P29323); assay: HotSpot Kinase Assay, EPHB2
Experimental: as §1

TRKA = TRKA (Homo sapiens, UniProt P04629); assay: HotSpot Kinase Assay, TRKA
Experimental: as §1

c-MET = c-MET (Homo sapiens, UniProt P08581); assay: HotSpot Kinase Assay, c-MET
RON/MST1R = RON/MST1R (Homo sapiens, UniProt Q04912); assay: HotSpot Kinase Assay, RON/MST1R
Experimental: as §1

TIE2/TEK = TIE2/TEK (Homo sapiens, UniProt Q02763); assay: HotSpot Kinase Assay, TIE2/TEK
Experimental: as §1

TYRO3/SKY = target: T1, TYRO3/SKY (Homo sapiens, UniProt Q06418); assay: HotSpot Kinase Assay, TYRO3/SKY
T1 sequence (Q06418 41-890): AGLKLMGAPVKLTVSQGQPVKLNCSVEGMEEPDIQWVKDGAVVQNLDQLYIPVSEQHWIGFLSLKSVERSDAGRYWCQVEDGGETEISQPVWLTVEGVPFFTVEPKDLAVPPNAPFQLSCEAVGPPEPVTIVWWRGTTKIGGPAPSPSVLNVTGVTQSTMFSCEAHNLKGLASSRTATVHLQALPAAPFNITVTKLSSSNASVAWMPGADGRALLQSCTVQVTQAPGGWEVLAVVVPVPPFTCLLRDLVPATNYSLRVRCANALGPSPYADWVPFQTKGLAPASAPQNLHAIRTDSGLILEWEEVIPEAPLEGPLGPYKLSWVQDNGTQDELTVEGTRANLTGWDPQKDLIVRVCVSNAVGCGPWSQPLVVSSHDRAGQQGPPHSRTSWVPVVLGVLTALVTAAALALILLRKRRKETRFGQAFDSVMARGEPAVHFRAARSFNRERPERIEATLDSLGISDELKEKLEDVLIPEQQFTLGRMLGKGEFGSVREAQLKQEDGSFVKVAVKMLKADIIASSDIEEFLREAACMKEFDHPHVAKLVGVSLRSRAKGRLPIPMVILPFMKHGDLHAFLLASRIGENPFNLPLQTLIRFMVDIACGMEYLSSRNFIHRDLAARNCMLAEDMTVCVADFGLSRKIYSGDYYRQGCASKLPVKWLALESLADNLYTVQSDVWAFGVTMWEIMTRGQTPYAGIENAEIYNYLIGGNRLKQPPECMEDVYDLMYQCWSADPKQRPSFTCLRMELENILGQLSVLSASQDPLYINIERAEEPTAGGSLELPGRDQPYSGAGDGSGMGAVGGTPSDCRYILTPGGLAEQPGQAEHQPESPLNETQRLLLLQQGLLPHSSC
Experimental: as §1

FLT3 = FLT3 (Homo sapiens, UniProt P36888); assay: HotSpot Kinase Assay, FLT3
Experimental: as §1

MEK5 = MEK5 (Homo sapiens, UniProt Q13163); assay: HotSpot Kinase Assay, MEK5
Experimental: as §1

KDR/VEGFR2 = KDR/VEGFR2 (Homo sapiens, UniProt P35968); assay: HotSpot Kinase Assay, KDR/VEGFR2
Experimental: as §1

EPHB4 = EPHB4 (Homo sapiens, UniProt P54760); assay: HotSpot Kinase Assay, EPHB4
Experimental: as §1

FMS = FMS (Homo sapiens, UniProt P07333); assay: HotSpot Kinase Assay, FMS
SLK/STK2 = SLK/STK2 (Homo sapiens, UniProt Q9H2G2); assay: HotSpot Kinase Assay, SLK/STK2
Experimental: as §1

KHS/MAP4K5 = KHS/MAP4K5 (Homo sapiens, UniProt Q9Y4K4); assay: HotSpot Kinase Assay, KHS/MAP4K5
Experimental: as §1

c-Kit = c-Kit (Homo sapiens, UniProt P10721); assay: HotSpot Kinase Assay, c-Kit
Experimental: as §1

HPK4 = HPK4 (Homo sapiens, UniProt Q8NE63); assay: HotSpot Kinase Assay, HPK4
Experimental: as §1

EPHB1 = EPHB1 (Homo sapiens, UniProt P54762); assay: HotSpot Kinase Assay, EPHB1
Experimental: as §1

RET = RET (Homo sapiens, UniProt P07949); assay: HotSpot Kinase Assay, RET
Experimental: as §1

Chain of MEK5 (Q13163 whole entry): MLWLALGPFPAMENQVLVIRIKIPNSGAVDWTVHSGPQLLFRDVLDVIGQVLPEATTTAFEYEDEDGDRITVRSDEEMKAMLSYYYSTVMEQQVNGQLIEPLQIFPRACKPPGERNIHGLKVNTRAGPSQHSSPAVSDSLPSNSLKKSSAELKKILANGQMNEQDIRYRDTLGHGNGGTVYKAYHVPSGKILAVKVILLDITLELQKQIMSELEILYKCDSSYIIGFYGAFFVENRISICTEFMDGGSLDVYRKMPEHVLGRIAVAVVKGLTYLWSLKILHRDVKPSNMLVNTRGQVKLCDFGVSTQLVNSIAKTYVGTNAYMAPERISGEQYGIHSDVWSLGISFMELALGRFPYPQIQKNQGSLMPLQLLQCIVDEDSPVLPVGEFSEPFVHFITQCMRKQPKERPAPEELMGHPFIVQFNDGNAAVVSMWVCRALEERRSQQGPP
Chain of FLT3 (P36888 27-993): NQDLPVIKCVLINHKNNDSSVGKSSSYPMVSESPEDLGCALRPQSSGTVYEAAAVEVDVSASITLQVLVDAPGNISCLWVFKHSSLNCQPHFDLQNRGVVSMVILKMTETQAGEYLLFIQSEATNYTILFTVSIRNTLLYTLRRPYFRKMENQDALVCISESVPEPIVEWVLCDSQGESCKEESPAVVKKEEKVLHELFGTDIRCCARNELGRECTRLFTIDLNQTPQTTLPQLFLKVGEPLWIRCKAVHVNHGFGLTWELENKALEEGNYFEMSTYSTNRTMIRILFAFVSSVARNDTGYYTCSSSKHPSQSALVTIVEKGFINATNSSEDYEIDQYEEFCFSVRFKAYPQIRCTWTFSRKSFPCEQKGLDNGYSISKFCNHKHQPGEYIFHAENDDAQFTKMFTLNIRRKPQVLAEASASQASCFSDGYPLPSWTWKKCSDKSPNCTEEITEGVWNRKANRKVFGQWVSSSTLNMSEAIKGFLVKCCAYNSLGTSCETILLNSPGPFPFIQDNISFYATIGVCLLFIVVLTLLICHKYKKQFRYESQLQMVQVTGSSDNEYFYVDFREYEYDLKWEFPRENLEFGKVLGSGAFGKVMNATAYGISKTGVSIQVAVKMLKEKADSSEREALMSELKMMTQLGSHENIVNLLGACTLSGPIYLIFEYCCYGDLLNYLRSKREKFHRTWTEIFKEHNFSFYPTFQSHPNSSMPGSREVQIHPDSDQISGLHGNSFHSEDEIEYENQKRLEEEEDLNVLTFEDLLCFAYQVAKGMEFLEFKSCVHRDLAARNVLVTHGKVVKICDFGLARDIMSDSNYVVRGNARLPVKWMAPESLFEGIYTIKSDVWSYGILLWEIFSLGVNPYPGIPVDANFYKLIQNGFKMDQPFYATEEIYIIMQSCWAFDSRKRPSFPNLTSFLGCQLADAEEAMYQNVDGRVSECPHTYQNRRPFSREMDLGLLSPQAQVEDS
Chain of FMS (P07333 20-972): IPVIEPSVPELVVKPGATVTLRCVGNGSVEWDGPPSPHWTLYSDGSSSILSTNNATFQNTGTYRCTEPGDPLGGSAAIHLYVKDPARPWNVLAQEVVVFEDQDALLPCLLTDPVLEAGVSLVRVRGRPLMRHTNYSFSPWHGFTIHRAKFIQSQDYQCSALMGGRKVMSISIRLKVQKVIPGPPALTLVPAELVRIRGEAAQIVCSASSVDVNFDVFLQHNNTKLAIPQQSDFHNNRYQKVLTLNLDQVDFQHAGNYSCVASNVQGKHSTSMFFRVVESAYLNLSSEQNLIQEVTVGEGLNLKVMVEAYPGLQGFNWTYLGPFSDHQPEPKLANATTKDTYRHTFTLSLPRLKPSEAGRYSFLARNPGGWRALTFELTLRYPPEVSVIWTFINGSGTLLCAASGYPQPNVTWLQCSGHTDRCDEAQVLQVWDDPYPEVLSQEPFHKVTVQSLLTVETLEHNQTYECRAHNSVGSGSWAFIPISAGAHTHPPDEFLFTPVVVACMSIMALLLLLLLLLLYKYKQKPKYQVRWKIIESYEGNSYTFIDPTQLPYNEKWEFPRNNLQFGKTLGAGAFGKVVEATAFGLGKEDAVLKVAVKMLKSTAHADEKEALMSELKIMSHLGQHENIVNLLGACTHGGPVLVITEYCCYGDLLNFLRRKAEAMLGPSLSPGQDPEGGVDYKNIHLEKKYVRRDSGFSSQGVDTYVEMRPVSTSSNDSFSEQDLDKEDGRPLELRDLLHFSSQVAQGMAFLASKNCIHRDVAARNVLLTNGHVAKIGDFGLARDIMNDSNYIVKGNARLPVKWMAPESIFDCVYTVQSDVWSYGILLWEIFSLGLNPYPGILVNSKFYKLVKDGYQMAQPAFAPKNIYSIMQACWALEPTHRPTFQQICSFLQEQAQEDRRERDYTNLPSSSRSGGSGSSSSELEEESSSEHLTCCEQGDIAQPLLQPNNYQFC
Chain of RON/MST1R (Q04912 25-1400): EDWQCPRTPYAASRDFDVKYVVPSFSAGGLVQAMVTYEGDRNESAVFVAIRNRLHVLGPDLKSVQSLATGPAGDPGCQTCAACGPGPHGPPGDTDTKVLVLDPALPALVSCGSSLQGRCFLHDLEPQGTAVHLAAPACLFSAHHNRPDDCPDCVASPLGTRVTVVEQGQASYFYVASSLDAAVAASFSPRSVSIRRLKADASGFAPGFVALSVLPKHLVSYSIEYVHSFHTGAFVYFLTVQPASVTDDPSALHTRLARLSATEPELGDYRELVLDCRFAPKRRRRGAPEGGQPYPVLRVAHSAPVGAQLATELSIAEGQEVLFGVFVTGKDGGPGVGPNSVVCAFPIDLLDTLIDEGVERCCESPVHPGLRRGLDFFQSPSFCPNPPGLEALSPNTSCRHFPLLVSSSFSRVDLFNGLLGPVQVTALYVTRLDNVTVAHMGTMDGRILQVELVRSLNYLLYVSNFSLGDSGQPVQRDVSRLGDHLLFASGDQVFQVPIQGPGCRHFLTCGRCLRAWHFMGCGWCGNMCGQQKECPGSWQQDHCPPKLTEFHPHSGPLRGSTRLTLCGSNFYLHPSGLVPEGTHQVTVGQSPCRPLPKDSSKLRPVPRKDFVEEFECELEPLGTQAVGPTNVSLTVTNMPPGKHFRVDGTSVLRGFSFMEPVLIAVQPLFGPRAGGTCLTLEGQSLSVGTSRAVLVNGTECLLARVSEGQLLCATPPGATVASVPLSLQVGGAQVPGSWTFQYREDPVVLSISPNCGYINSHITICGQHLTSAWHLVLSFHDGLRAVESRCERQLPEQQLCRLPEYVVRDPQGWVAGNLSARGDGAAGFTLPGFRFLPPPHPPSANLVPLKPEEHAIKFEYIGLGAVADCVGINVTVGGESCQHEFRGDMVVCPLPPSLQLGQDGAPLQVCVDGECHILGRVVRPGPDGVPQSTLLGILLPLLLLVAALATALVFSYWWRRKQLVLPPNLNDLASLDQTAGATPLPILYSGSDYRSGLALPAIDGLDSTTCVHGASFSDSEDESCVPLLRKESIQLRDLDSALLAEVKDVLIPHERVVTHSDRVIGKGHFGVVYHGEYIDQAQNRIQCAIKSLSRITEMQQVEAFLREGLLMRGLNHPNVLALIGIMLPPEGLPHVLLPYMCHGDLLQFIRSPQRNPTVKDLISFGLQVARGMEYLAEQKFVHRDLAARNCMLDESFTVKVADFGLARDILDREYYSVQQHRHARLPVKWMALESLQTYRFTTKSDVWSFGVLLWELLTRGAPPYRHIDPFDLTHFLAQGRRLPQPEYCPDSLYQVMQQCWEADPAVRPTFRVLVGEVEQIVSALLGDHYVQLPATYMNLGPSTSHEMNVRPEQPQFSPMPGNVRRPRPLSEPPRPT
Chain of TIE2/TEK (Q02763 23-1124): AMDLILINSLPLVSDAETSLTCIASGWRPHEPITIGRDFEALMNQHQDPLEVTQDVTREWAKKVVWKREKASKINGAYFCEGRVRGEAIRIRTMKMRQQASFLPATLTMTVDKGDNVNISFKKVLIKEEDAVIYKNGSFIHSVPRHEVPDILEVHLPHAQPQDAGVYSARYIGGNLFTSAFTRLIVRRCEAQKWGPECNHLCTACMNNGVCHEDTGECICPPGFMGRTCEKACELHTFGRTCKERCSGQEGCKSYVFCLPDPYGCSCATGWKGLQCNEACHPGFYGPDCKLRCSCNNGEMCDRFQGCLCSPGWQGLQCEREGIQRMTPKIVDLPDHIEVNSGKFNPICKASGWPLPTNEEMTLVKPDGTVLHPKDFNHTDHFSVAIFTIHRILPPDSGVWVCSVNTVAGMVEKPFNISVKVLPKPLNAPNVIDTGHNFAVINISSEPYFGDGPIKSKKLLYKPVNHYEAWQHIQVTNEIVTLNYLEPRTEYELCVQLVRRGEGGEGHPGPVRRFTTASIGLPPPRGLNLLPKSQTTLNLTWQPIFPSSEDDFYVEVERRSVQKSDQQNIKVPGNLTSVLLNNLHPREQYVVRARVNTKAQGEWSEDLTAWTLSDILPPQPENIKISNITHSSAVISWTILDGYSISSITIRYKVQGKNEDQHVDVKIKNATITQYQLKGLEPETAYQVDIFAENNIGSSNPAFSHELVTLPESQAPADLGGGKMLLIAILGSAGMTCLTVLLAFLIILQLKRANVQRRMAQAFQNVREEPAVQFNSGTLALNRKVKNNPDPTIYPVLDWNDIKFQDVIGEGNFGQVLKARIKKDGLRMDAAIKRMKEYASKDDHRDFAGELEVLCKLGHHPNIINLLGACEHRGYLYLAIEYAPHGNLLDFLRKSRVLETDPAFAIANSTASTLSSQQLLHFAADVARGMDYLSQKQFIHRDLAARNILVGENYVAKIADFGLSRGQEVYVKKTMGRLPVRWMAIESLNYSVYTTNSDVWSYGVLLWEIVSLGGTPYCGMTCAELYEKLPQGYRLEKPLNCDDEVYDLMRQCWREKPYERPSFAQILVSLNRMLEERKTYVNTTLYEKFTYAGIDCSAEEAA

Work on `COc1cc2c(Oc3ccc(NC(=O)C4(C(=O)Nc5ccc(F)cc5)CC4)cc3)ccnc2cc1OC(=O)N1CCN(C)CC1` [Compound 1-10] yielded a pIC50 (MEK1) of under 6.00, a pIC50 (EPHA1) of under 6.00 and a pIC50 (DDR1) of over 7.00. It also gave a pIC50 (PLK4/SAK) of under 6.00, a pIC50 (EPHB2) of 6.00 to 7.00 and a pIC50 (TRKA) of over 7.00. For the same compound, the pIC50 (c-MET) was over 7.00, the pIC50 (RON/MST1R) was under 6.00 and the pIC50 (TIE2/TEK) was under 6.00. It also gave a pIC50 (TYRO3/SKY) of 6.00 to 7.00, a pIC50 (FLT3) of over 7.00 and a pIC50 (MEK5) of under 6.00. It also gave a pIC50 (KDR/VEGFR2) of 6.00 to 7.00, a pIC50 (EPHB4) of 6.00 to 7.00 and a pIC50 (FMS) of over 7.00. For the same compound, the pIC50 (SLK/STK2) was under 6.00, the pIC50 (KHS/MAP4K5) was under 6.00 and the pIC50 (c-Kit) was over 7.00. The pIC50 (HPK4) was over 7.00, the pIC50 (EPHB1) was 6.00 to 7.00 and the pIC50 (RET) was 6.00 to 7.00.
